Like-named read-outs stand apart in the source and are kept apart here.

Data set [1] concerns HIV-1 infection of TZM-bl cells. The experiment in a line: HIV-1 infectivity enhancement assay, β-galactosidase luminescence. Format: cell-based. The following applies: for Rel-EFC / Log10 Infection Rel EFC: 1.3 µM peptide; for Rel-EFC: infection relative to EF-C (QCKIKQIINMWQ = 1); for Log10 Infection Rel EFC: log10 of infection relative to EF-C; for Log Infectivity: Fig. S7 panel A (plotted against β-sheet content), Log10 infection relative to EF-C, asymmetric std dev errors; for Log Infectivity / Abs. Inf.: TZM-bl cells; for Log10 Infection Rel EF-C: HIV-1 infection of TZM-bl cells; for Abs. Inf.: absolute HIV-1 infection signal, β-galactosidase luminescence; for Log10 of Rel to EFC (Feb2021): Log10 of infection relative to EF-C.

The format of data set [2] is physicochemical. To be noted: for ThT Cat. / ThT-Fluorescence (categorical): ThT-active if fluorescence at least twice the control. In short, it runs like this: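 Preformed peptide fibrils (1 mg/mL) mixed with 50 µM ThT in PBS, 15 min at RT, fluorescence ex 440/em 488 nm versus PBS blank, triplicates. Zeta potential: peptides at 1 mg/mL in PBS pH 7.4, aged 1 d at RT, diluted in 1 mM KCl, Smoluchowski from electrophoretic mobility.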

Where [3] appears, read: Log10 of infection rate relative to EF-C, Figure 3A source data.
Setting [4] is: infection rate relative to EF-C, log10, data of Figure 2D.
The mark [5] stands for this setting: infection rate relative to EF-C, log10, source data of Figure 2C.

For the substance HHHHKAKAKAKAWWWW, in data set [1], the Rel-EFC is given as 0,09, the “Log10 Infection Rel EFC” value is listed as -1,05, the “Log Infectivity” value is reported as -1.048 and the “Abs. Inf.” value came to 3233. Further, the “Log10 Infection Rel EF-C” value in data set [1] (setting [3]) is -1.05. Moreover, the “Log10 Infection Rel EF-C” value in data set [1] (setting [4]) is -1.048. For the same substance, the “Log10 Infection Rel EF-C” value in data set [1] (setting [5]) was -1.048. In data set [2] (Fig S10 panel D), the “Tht category (> 2 to blank = +)” value is 1 (ThT. Cat is 1, if Rel. ThT >2). In data set [2] (FigS12 panel A), the “Tht category (> 2 to blank = +)” value is listed as 1 (ThT. Cat is 1, if Rel. ThT >2). Further, the “ThT Cat,” value in data set [2] (FigS12 panel B) is 1 (ThT. Cat is 1, if Rel. ThT >2). Moreover, in data set [2] (ThT category, 1 if Rel. ThT >2), the “ThT Cat,” value is on record as 1 (ThT. Cat is 1, if Rel. ThT >2) and the “ThT Cat.” value is on record as 1 (ThT. Cat is 1, if Rel. ThT >2). In addition, the “ThT Cat. / ThT-Fluorescence (categorical)” value (from here on “ThT Cat. / ThT-Fluorescence”) in data set [2] is recorded as 1 (ThT. Cat is 1, if Rel. ThT >2).

For the substance KFKFQFW, in data set [1], the Rel-EFC was 0,16, the “Log10 Infection Rel EFC” value is listed as -0,79, the “Log Infectivity” value is reported as -0.7899 and the “Abs. Inf.” value is 4953. Besides, the “Log10 Infection Rel EF-C” value in data set [1] (setting [3]) was -0.79. In addition, the “Log10 Infection Rel EF-C” value in data set [1] (setting [4]) was -0.7899. The “Log10 Infection Rel EF-C” value in data set [1] (setting [5]) is given as -0.7899. For the same substance, the “Log10 of Rel to EFC (Feb2021)” value in data set [1] (all peptides of FigS16) is given as -0.79. Further, the “Tht category (> 2 to blank = +)” value in data set [2] (Fig S10 panel D) is 1 (ThT. Cat is 1, if Rel. ThT >2). For the same substance, in data set [2] (ThT category, 1 if Rel. ThT >2), the “ThT Cat,” value is 1 (ThT. Cat is 1, if Rel. ThT >2) and the “ThT Cat.” value is listed as 1 (ThT. Cat is 1, if Rel. ThT >2). In addition, in data set [2], the “ThT Cat. / ThT-Fluorescence” value is 1 (ThT. Cat is 1, if Rel. ThT >2).

As to KIKIQIMWNQ, in data set [1], the Rel-EFC is reported as 0,56, the “Log10 Infection Rel EFC” value is listed as -0,25, the “Log Infectivity” value is on record as -0.2495 and the “Abs. Inf.” value was determined as 9147. Also, the “Log10 Infection Rel EF-C” value in data set [1] (setting [3]) is -0.25. Further, the “Log10 Infection Rel EF-C” value in data set [1] (setting [4]) is reported as -0.2495. Besides, the “Log10 Infection Rel EF-C” value in data set [1] (setting [5]) is reported as -0.2495. For the same substance, in data set [1] (all peptides of FigS16), the “Log10 of Rel to EFC (Feb2021)” value is on record as -0.25. For the same substance, the “Tht category (> 2 to blank = +)” value in data set [2] (Fig S10 panel D) is 0 (ThT-inactive (N-Fold <2)). Besides, in data set [2] (ThT category, 1 if Rel. ThT >2), the “ThT Cat,” value was 0 (ThT-inactive (N-Fold <2)) and the “ThT Cat.” value is 0 (ThT-inactive (N-Fold <2)). For the same substance, the “ThT Cat. / ThT-Fluorescence” value in data set [2] is 0 (ThT-inactive (N-Fold <2)).

Turning to CKIKQIIRGD, the Rel-EFC in data set [1] is reported as 0,05. Also, the “Log10 Infection Rel EFC” value in data set [1] is -1,31. The “Log10 Infection Rel EF-C” value was -1.31 in data set [1] (setting [3]), -1.311 in data set [1] (setting [4]) and -1.311 in data set [1] (setting [5]). The “ThT Cat,” value in data set [2] (FigS12 panel B) was 0 (ThT-inactive (N-Fold <2)); in data set [2] (ThT category, 1 if Rel. ThT >2), 0 (ThT-inactive (N-Fold <2)). Further, the “ThT Cat.” value in data set [2] (ThT fluorescence category, 1 if Rel. ThT >2) was 0 (ThT-inactive (N-Fold <2)). Moreover, in data set [2], the “ThT Cat. / ThT-Fluorescence” value is 0 (ThT-inactive (N-Fold <2)).

Take KIKIQINMWWQ: in data set [1], the Rel-EFC was 3,21, the “Log10 Infection Rel EFC” value was 0,51, the “Log Infectivity” value was 0.5063 and the “Abs. Inf.” value amounted to 17976.66667. Besides, the “Log10 Infection Rel EF-C” value in data set [1] (setting [3]) was found to be 0.51. Moreover, in data set [1] (setting [4]), the “Log10 Infection Rel EF-C” value worked out at 0.5063. Further, the “Log10 Infection Rel EF-C” value in data set [1] (setting [5]) is listed as 0.5063. The “Log10 of Rel to EFC (Feb2021)” value in data set [1] (all peptides of FigS16) turned out to be 0.51. Moreover, in data set [1] (second listing, peptides with TEM 2cat 0), the “Log10 of Rel to EFC (Feb2021)” value is given as 0.51. In addition, the “Tht category (> 2 to blank = +)” value in data set [2] (Fig S10 panel D) is 0 (ThT-inactive (N-Fold <2)). Further, in data set [2] (ThT category, 1 if Rel. ThT >2), the “ThT Cat,” value is 0 (ThT-inactive (N-Fold <2)) and the “ThT Cat.” value is 0 (ThT-inactive (N-Fold <2)). The “ThT Cat. / ThT-Fluorescence” value in data set [2] was 0 (ThT-inactive (N-Fold <2)).

Values taken from paper PMC10447463, “Data-mining unveils structure–property–activity correlation of viral infectivity enhancing self-assembling peptides” (Nature Communications, 2023).
